This note sets out measurements from patent US20240400591A1 (Jacobio Pharmaceuticals Co., Ltd., priority 2021, published 2024).

For one assay, the system named is NUGC3 (P53 Y220C). The assay can be described thus: Cell viability assay (CellTiter-Glo, 6 days), NUGC3. Particulars: cell viability, 6 days, CellTiter-Glo, read-out: NUGC3 (P53 Y220C) IC50. The assay is classed as cell-based. In short, it runs like this: (§1)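 After a 6-day compound exposure following overnight plating, ATP luminescence (CellTiter-Glo) gave percent viability relative to DMSO-treated cells and cell-free medium controls. IC50 = concentration at 50% viability, from 4-parameter logistic or Excel fit.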

The subject of assay [1] is NUGC-3_P53_Luc single clonal cell line (p53 Y220C). The assay is described as follows: Reporter gene assay (p53 RE luciferase). Particulars: luciferase reporter, 6 hours, normalized to Ref-1a (10 μM) high control, read-out: p53(Y220C)_NUGC-3 EC50. The class given is cell-based. In short, it runs like this: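 Luminescence normalised to DMSO-only (0%) and 10 μM Ref-1a (100%) wells gives % activity, fitted by 4-parameter logistic or Excel to yield EC50 at 50%. Reporter line: NUGC-3 with p53 response element-luc2P, compound-treated 6 h at 37 °C.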

The test system of a further assay is NUGC4 (P53 WT). The assay can be described thus: Cell viability assay (CellTiter-Glo, 6 days), NUGC4. The assay is classed as cell-based. Particulars: cell viability, 6 days, CellTiter-Glo, read-out: NUGC4 (P53 WT) IC50. In short, it runs like this: as §1
The target of assay [2] is T1, His-p53 Y220C (94-294) protein (Homo sapiens, UniProt P04637, Y220C).
T1 construct: His-p53 Y220C (94-294) protein
The assay is described as follows: In vitro DNA binding assay (HTRF). The assay is classed as biochemical. The following applies: % activation normalized to 2 μM Ref-1a high control. (TR-FRET usually uses a lanthanide donor and a delayed reading to cut background.)

One may read the IC50 as the point on the concentration scale where inhibition reaches its midpoint. The EC50 is the concentration giving half of the maximal effect.

Where two headings read alike, the source gives them in different places.

Turning to `CN1CC[C@@H](Nc2cccc3c(CC(F)(F)F)c(C#CCNc4ccc(P(C)(C)=O)cc4Cl)sc23)[C@@H](F)C1` (racemic) [Example 83, (3-chloro-4-((3-(7-(((Z)-3-fluoro-1-methylpiperidin-4-yl)amino)-3-(2,2,2-trifluoroethyl)benzo[b]thiophen-2-yl)prop-2-yn-1-yl)amino)phenyl)dimethylphosphine oxide], the IC50 in the assay on NUGC3 (P53 Y220C) (Homo sapiens, NUGC-3, 144 h) is 1310 nM; in the assay with NUGC4 (P53 WT) (Homo sapiens, NUGC-4, 144 h), 7960 nM. In addition, the EC50 turned out to be 210 nM in assay [1] (Homo sapiens, NUGC-3, 6 h) and 40 nM in assay [2].

Consider `CN1CC[C@@H](Nc2cccc3c(CC(F)(F)F)c(C#CCNc4ccc(P(C)(C)=O)cc4C#N)sc23)[C@@H](F)C1` [Example 211, 5-(dimethylphosphoryl)-2-((3-(7-(((3S,4R)-3-fluoro-1-methylpiperidin-4-yl)amino)-3-(2,2,2-trifluoroethyl)benzo[b]thiophen-2-yl)prop-2-yn-1-yl)amino)benzonitrile], for which the half-inhibitory concentration (IC50) in the assay on NUGC3 (P53 Y220C) (Homo sapiens, NUGC-3, 144 h) was 1070 nM; in the assay with NUGC4 (P53 WT) (Homo sapiens, NUGC-4, 144 h), 11300 nM. The EC50 was 220 nM in assay [1] (Homo sapiens, NUGC-3, 6 h) and 52 nM in assay [2].

Regarding `CN1CC[C@@H](Nc2cccc3c(CC(F)(F)F)c(C#CCNc4ccc(P(C)(C)=O)cc4C(N)=O)sc23)[C@@H](F)C1` [Example 199, 5-(dimethylphosphoryl)-2-((3-(7-(((3S,4R)-3-fluoro-1-methylpiperidin-4-yl)amino)-3-(2,2,2-trifluoroethyl)benzo[b]thiophen-2-yl)prop-2-yn-1-yl)amino)benzamide], the concentration for half-maximal inhibition (IC50) was determined as 360 nM with NUGC3 (P53 Y220C) (Homo sapiens, NUGC-3, 144 h) and 49000 nM in the assay on NUGC4 (P53 WT) (Homo sapiens, NUGC-4, 144 h). The half-maximal effective concentration (EC50) in assay [1] (Homo sapiens, NUGC-3) is 60 nM; in assay [2], 27 nM.

As for `COCC(O)CNC(=O)c1ccc(NCC#Cc2sc3c(NC4CCN(C)CC4F)cccc3c2CC(F)(F)F)c(OC)c1` (stereo not shown) [Example 59, 4-((3-(7-(((Z)-3-fluoro-1-methylpiperidin-4-yl)amino)-3-(2,2,2-trifluoroethyl)benzo[b]thiophen-2-yl)prop-2-yn-1-yl)amino)-N-(2-hydroxy-3-methoxypropyl)-3-methoxybenzamide], the IC50 was determined as 1440 nM in the assay with NUGC3 (P53 Y220C) and 9820 nM in the assay on NUGC4 (P53 WT). In addition, the EC50 came out at 150 nM in assay [1] and 73 nM in assay [2].

Consider `CN1CCC(Nc2cccc3c(CC(F)(F)F)c(C#CCNc4ccc(P(C)(C)=O)cc4OC(F)F)sc23)C(F)C1` (stereo not shown) [Example 64, (3-(difluoromethoxy)-4-((3-(7-(((Z)-3-fluoro-1-methylpiperidin-4-yl)amino)-3-(2,2,2-trifluoroethyl)benzo[b]thiophen-2-yl)prop-2-yn-1-yl)amino)phenyl)dimethylphosphine oxide], for which the IC50 is 980 nM in the assay on NUGC3 (P53 Y220C) and 13600 nM in the assay with NUGC4 (P53 WT). Moreover, the 50% effective concentration (EC50) in assay [1] turned out to be 150 nM; in assay [2] it was 44 nM.

Take `COc1cc(P(C)(C)=O)ccc1NCC#Cc1sc2c(NC3CC4(C3)CN(C)C4)cccc2c1CC(F)(F)F` [Example 189, (3-methoxy-4-((3-(7-((2-methyl-2-azaspiro[3.3]heptan-6-yl)amino)-3-(2,2,2-trifluoroethyl)benzo[b]thiophen-2-yl)prop-2-yn-1-yl)amino)phenyl)dimethylphosphine oxide]: the half-maximal inhibitory concentration (IC50) in the assay with NUGC3 (P53 Y220C) (Homo sapiens, NUGC-3, 144 h) stood at 3640 nM; in the assay on NUGC4 (P53 WT) (Homo sapiens, NUGC-4, 144 h), 8670 nM. Moreover, the EC50 came out at 700 nM in assay [1] (Homo sapiens, NUGC-3) and 45 nM in assay [2].

As to `CN1CCC(Nc2cccc3c(CC(F)(F)F)c(C#CCNc4ccc(P(C)(C)=O)cc4OCF)sc23)C(F)C1` (stereo not shown) [Example 10, (4-((3-(7-(((Z)-3-fluoro-1-methylpiperidin-4-yl)amino)-3-(2,2,2-trifluoroethyl)benzo[b]thiophen-2-yl)prop-2-yn-1-yl)amino)-3-(fluoromethoxy)phenyl)dimethylphosphine oxide], the figures for the IC50 in the assay on NUGC3 (P53 Y220C) and in the assay on NUGC4 (P53 WT) were 1680 nM and 21000 nM, respectively. Further, the figures for the EC50 in assay [1] and in assay [2] were 230 nM and 56 nM, respectively.

`COc1cc(C(=O)NC2CCN(C)CC2(F)F)ccc1NCC#Cc1sc2c(N[C@@H]3CCN(C)C[C@@H]3F)cccc2c1CC(F)(F)F` (relative stereo) [Example 94, N-(3,3-difluoro-1-methylpiperidin-4-yl)-4-((3-(7-(((Z)-3-fluoro-1-methylpiperidin-4-yl)amino)-3-(2,2,2-trifluoroethyl)benzo[b]thiophen-2-yl)prop-2-yn-1-yl)amino)-3-methoxybenzamide]: the concentration for half-maximal inhibition (IC50) with NUGC3 (P53 Y220C) (Homo sapiens, NUGC-3, 144 h) is 1840 nM; with NUGC4 (P53 WT) (Homo sapiens, NUGC-4, 144 h), 2750 nM. For the same compound, the EC50 in assay [1] (Homo sapiens, NUGC-3) was 190 nM; in assay [2], 85 nM.

Regarding `CNC(=O)c1ccc(NCC#Cc2cc3c(N[C@@H]4CCN(C)C[C@@H]4F)cccc3n2CC(F)(F)F)c(OC)c1` [Example 110, 4-((3-(4-(((3S,4R)-3-fluoro-1-methylpiperidin-4-yl)amino)-1-(2,2,2-trifluoroethyl)-1H-indol-2-yl)prop-2-yn-1-yl)amino)-3-methoxy-N-methylbenzamide], the concentration for half-maximal inhibition (IC50) in the assay on NUGC3 (P53 Y220C) (Homo sapiens, NUGC-3, 144 h) was 1020 nM; in the assay on NUGC4 (P53 WT) (Homo sapiens, NUGC-4, 144 h), 14200 nM. Besides, the EC50 in assay [1] (Homo sapiens, NUGC-3, 6 h) came out at 40 nM; in assay [2], 27 nM.

For the compound `CN1CC[C@@H](Nc2cccc3c(CC(F)(F)F)c(C#CCNc4ccc(P(C)(C)=O)cc4C(F)(F)F)sc23)[C@@H](F)C1` [Example 105, (4-((3-(7-(((3S,4R)-3-fluoro-1-methylpiperidin-4-yl)amino)-3-(2,2,2-trifluoroethyl)benzo[b]thiophen-2-yl)prop-2-yn-1-yl)amino)-3-(trifluoromethyl)phenyl)dimethylphosphine oxide], the half-inhibitory concentration (IC50) with NUGC3 (P53 Y220C) (Homo sapiens, NUGC-3, 144 h) is 1830 nM; in the assay with NUGC4 (P53 WT) (Homo sapiens, NUGC-4, 144 h) it was 10000 nM. Also, the EC50 came out at 200 nM in assay [1] (Homo sapiens, NUGC-3, 6 h) and 35 nM in assay [2].

With `COc1cc(P(C)(C)=O)ccc1NCC#Cc1sc2c(NC3CC(C)N(C)C(C)C3)cccc2c1CC(F)(F)F` (stereo not shown) [Example 143, (3-methoxy-4-((3-(3-(2,2,2-trifluoroethyl)-7-((1,2,6-trimethylpiperidin-4-yl)amino)benzo[b]thiophen-2-yl)prop-2-yn-1-yl)amino)phenyl)dimethylphosphine oxide], the concentration for half-maximal inhibition (IC50) with NUGC3 (P53 Y220C) (Homo sapiens, NUGC-3, 144 h) is 1940 nM; in the assay with NUGC4 (P53 WT) (Homo sapiens, NUGC-4, 144 h), 6940 nM. Moreover, the 50% effective concentration (EC50) was 450 nM in assay [1] (Homo sapiens, NUGC-3) and 106 nM in assay [2].

For `COc1cc(P(C)(C)=O)ccc1NCC#Cc1sc2c(NC3CCN(C)CC34CC4)cccc2c1CC(F)(F)F` (stereo not shown) [Example 89, (3-methoxy-4-((3-(7-((5-methyl-5-azaspiro[2.5]octan-8-yl)amino)-3-(2,2,2-trifluoroethyl)benzo[b]thiophen-2-yl)prop-2-yn-1-yl)amino)phenyl)dimethylphosphine oxide], the concentration for half-maximal inhibition (IC50) with NUGC3 (P53 Y220C) (Homo sapiens, NUGC-3, 144 h) was 820 nM; with NUGC4 (P53 WT) (Homo sapiens, NUGC-4, 144 h), 4540 nM. Also, the EC50 amounted to 230 nM in assay [1] (Homo sapiens, NUGC-3) and 53 nM in assay [2].

Turning to `COCC(O)CN1CC[C@@H](Nc2cccc3c(CC(F)(F)F)c(C#CCNc4ccc(S(C)(=O)=O)cc4OC)sc23)[C@@H](F)C1` (mixture of isomers) [Example 6, 1-((Z)-3-fluoro-4-((2-(3-((2-methoxy-4-(methylsulfonyl)phenyl)amino)prop-1-yn-1-yl)-3-(2,2,2-trifluoroethyl)benzo[b]thiophen-7-yl)amino)piperidin-1-yl)-3-methoxypropan-2-ol], the concentration for half-maximal inhibition (IC50) in the assay with NUGC3 (P53 Y220C) (Homo sapiens, NUGC-3, 144 h) was found to be 1190 nM; in the assay with NUGC4 (P53 WT) (Homo sapiens, NUGC-4, 144 h) it was 6830 nM. Also, the concentration giving a half-maximal response (EC50) came to 360 nM in assay [1] (Homo sapiens, NUGC-3) and 130 nM in assay [2].

Take `CN1CC[C@@H](Nc2cccc3c(CC(F)(F)F)c(C#CCNc4cc(F)c(P(C)(C)=O)cc4F)sc23)[C@@H](F)C1` (racemic) [Example 91, (2,5-difluoro-4-((3-(7-(((Z)-3-fluoro-1-methylpiperidin-4-yl)amino)-3-(2,2,2-trifluoroethyl)benzo[b]thiophen-2-yl)prop-2-yn-1-yl)amino)phenyl)dimethylphosphine oxide]: the half-inhibitory concentration (IC50) in the assay with NUGC3 (P53 Y220C) (Homo sapiens, NUGC-3, 144 h) came to 1800 nM; in the assay on NUGC4 (P53 WT) (Homo sapiens, NUGC-4, 144 h), 9410 nM. Also, the 50% effective concentration (EC50) was 260 nM in assay [1] (Homo sapiens, NUGC-3) and 102 nM in assay [2].

As to `COc1cc(P(C)(C)=O)ccc1NCC#Cc1sc2c(NC3C(C)CN(C)CC3C)cccc2c1CC(F)(F)F` (stereo not shown) [Example 131, (3-methoxy-4-((3-(3-(2,2,2-trifluoroethyl)-7-(((Z)-1,3,5-trimethylpiperidin-4-yl)amino)benzo[b]thiophen-2-yl)prop-2-yn-1-yl)amino)phenyl)dimethylphosphine oxide], the IC50 was determined as 660 nM with NUGC3 (P53 Y220C) (Homo sapiens, NUGC-3, 144 h) and 2540 nM in the assay on NUGC4 (P53 WT) (Homo sapiens, NUGC-4, 144 h). The EC50 in assay [1] (Homo sapiens, NUGC-3) was determined as 70 nM; in assay [2], 33 nM.

For `COCCOCCNC(=O)c1ccc(NCC#Cc2sc3c(N[C@@H]4CCN(C)C[C@@H]4F)cccc3c2CC(F)(F)F)c(OC)c1` (racemic) [Example 96, 4-((3-(7-(((Z)-3-fluoro-1-methylpiperidin-4-yl)amino)-3-(2,2,2-trifluoroethyl)benzo[b]thiophen-2-yl)prop-2-yn-1-yl)amino)-3-methoxy-N-(2-(2-methoxyethoxy)ethyl)benzamide], the half-maximal inhibitory concentration (IC50) in the assay with NUGC3 (P53 Y220C) (Homo sapiens, NUGC-3, 144 h) amounted to 1680 nM; in the assay on NUGC4 (P53 WT) (Homo sapiens, NUGC-4, 144 h) it was 9930 nM. For the same compound, the EC50 in assay [1] (Homo sapiens, NUGC-3) was found to be 130 nM; in assay [2], 103 nM.
